One assay addresses T1, BGT1 E52A + Q299L (Homo sapiens, UniProt P48065, E52A/Q299L).
T1 construct: expressed in transfected cells; host or cells: tsA201 (transformed HEK293), transient
T1 sequence (P48065 1-614 E52A/Q299L): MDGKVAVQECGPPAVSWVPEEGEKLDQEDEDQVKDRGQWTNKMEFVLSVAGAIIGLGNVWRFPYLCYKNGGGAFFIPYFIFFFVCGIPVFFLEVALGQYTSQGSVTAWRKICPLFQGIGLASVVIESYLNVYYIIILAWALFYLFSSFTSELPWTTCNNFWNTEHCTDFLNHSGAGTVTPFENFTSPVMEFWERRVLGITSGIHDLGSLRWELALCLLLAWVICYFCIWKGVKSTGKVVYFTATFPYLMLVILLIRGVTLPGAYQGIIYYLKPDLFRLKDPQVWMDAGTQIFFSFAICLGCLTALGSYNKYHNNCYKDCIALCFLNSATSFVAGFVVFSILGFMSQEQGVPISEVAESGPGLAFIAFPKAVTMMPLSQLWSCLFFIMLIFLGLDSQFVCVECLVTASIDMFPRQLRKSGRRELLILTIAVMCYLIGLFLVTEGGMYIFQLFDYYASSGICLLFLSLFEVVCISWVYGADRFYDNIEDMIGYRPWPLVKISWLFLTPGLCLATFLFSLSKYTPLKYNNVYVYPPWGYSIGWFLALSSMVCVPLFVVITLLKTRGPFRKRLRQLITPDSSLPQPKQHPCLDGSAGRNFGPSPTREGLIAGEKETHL
Put plainly: [3H]GABA uptake assay, transient expression in tsA201 cells. Type of assay: cell-based. The conditions noted are these: for IC50: BGT1 E52A + Q299L, tsA201 cells (2: only n = 2). How it is done:
(§1) The residue Q299 in human BGT1 corresponds to leucine in all other GATs (human, rat, mouse), while E52 corresponds to tyrosine in GAT1 (human, rat, mouse) but is conserved among GAT2, GAT3 and BGT1 (human, rat, mouse) (Figure 6A) ([Kickinger et al., 2019]).
(§2) The tsA201 cell line (a transformed HEK293 cell line), the Flp-In CHO cell lines stably expressing human (h) GATs and the HEK293 cell line stably expressing human α1β2γ2 GABAA receptors have been described previously and were cultured accordingly ([Al-Khawaja et al., 2014]; [Falk-Petersen et al., 2020]). The tsA201 cell line used for transient expression of hGATs was transfected with DNA constructs (8 μg per 10 cm plate) using 40 μL PolyFect transfection reagent according to the manufacturer’s protocol (Qiagen).
(§3) Briefly, cells were seeded in white 96-well plates (White Opaque Tissue Culture (TC) plated 96-well Microplate) pre-coated with PDL. Medium was removed on the following day and cells washed with 100 µL/well assay buffer (HBSS supplemented with 20 mM HEPES, 1 mM CaCl2 and 1 mM MgCl2, pH 7.4). […] The cells were washed 3 times with 100 µL/well ice-cold assay buffer, 150 µL/well MicroScint™20 was subsequently added before the plate was shaken for at least 1 h. The plate was counted in a Packard TopCounter microplate scintillation counter (PerkinElmer) for 3 min per well. […] Data presented is the pooled data of at least three independent experiments with three technical replicates if not stated otherwise in figure legends. Concentration–response curves were fitted by non-linear regression to the sigmoidal concentration-response model with GraphPad Prism (version 9.0.0, GraphPad Software, San Diego, CA, United States) as described ([Lie et al., 2020]).

The target in the next assay is T2, BGT1 E52Y (Homo sapiens, UniProt P48065, E52Y).
T2 construct: expressed in transfected cells; host or cells: tsA201 (transformed HEK293), transient
T2 sequence (P48065 1-614 E52Y): T1 sequence (P48065 1-614 E52A/Q299L) with A52Y, L299Q
Described as above. Type of assay: cell-based. The conditions noted are these: for IC50: BGT1 E52Y, tsA201 cells. How it is done:
as §1, §2, §3

Structures are written as SMILES. Substitutions are numbered along the chain they refer to. Where two headings read alike, the source gives them in different places.

On to `N[C@@]12CC[C@H](C(=O)O)[C@@H]1C2` [bicyclo-GABA, (1S,2S,5R)-5-aminobicyclo[3.1.0]hexane-2-carboxylic acid], for which the results for the IC50 at BGT1 E52A + Q299L (read-out: IC50) and at BGT1 E52Y were 41 µM and 11 µM, respectively. Moreover, the “Decrease in inhibitory activity compared to wildtype” value is reported as 27 times at BGT1 E52A + Q299L (BGT1 Q299L + E52A vs BGT1 wt) and 7 times on BGT1 E52Y (BGT1 E52Y vs BGT1 wt).

Consider `CN[C@@]12CC[C@H](C(=O)O)[C@@H]1C2` [compound 2], for which the figures for the IC50 at BGT1 E52A + Q299L (read-out: IC50), on BGT1 E52A + Q299L (read-out: pIC50 ± S.E.M. (converted)) and against BGT1 E52Y were 44 µM, 31.6 µM and 20 µM, respectively.

The record behind these values is article PMC8476755 (Frontiers in Chemistry, 2021).
